Source: patent US9532945B2, “Oral dosage forms including an antiplatelet agent and an enterically coated acid inhibitor” (KG ACQUISITION LLC, priority 2006, dated 2017)

Tests used:
[1] = Excipient compatibility study: physical appearance; type: physicochemical; parameters: key: T: Off white powder with pellets; V: Off white powder with white pellets; W: Off white powder with off white pellets; X: Off white powder without pellets; Y: Off white powder with pellets and shells; Z: Sticky off white powder with grey pellets; S: Off white powder with blue pellets; R: Off white powder with grey pellets; Q: Off white powder with brown pellets; P: Brownish sticky powder with gray pellets; Off white powder with sticking brown pellets; N: Brownish sticky powder with blue pellets; M: Slight yellow powder with grey pellets; Light brownish sticky powder with off white pellets; K: Slight yellow agglutinate; J: Sticky off white powder with off white pellets; I: Capsule shells with white pellets and off white powder; H: Capsule shells with yellowish pellets and off white powder; conditions: stored at 40° C./75% RH
Description: In addition to the excipients used in the commercial formulation, some commonly used excipients were also tested. […] Samples were stored also at 25° C./60% RH to be tested only if the stress sample failed. […] The development work explored the compatibility of both APIs together with each of the proposed excipients individually in different ratios depending on the function of the excipient at different temperature and humidity conditions. The selected excipients were mixed with the APIs in different ratios depending on the excipient functionality (Table 5). In addition, samples of pure APIs and excipients were prepared and provided as reference and control respectively.

[2] = at a pH greater than about 4; cited from earlier work

Row | Physical Appearance ([1]; 1 week) | Physical Appearance ([1]; 2 weeks) | Physical Appearance ([1]; 4 weeks) | Physical Appearance ([1]; 6 weeks) | Physical Appearance ([1]; 8 weeks) | Physical Appearance ([1]; 12 weeks) | Physical Appearance ([1]; Initial) | Structure (SMILES) | solubility [2]
1 | X | X | X | X | X | X | X | COC(=O)[C@H](c1ccccc1Cl)N1CCc2sccc2C1 [Clopidogrel Bisulfate] | 
2 |  |  |  |  |  |  |  | COC(=O)[C@H](c1ccccc1Cl)N1CCc2sccc2C1 [clopidogrel] | reduced solubility
